Values quoted from earlier work as cited in patent US20150157714A1, “IMPLEMENTATION OF NON-PATHOGENIC BIOLUMINESCENT BACTERIA AS A SUB-MICRON LIGHT EMITTING SOURCE FOR PHOTO-DYNAMIC THERAPY IN THE LUNGS” (priority 2013, published 2015).

Legend:
[1] = for Spectral Absorption Ranges and Peaks: absorption spectra wavelengths for photochemical interactions; for absorption peak: visible light absorption peaks named in text
[2] = tested on: Multidrug-resistant Pseudomonas aeruginosa; conditions: 635 nm light
[3] = tested on: methicillin-resistant Staphylococcus aureus (MRSA); conditions: with 632.8 nm light
[4] = tested on: multi-drug resistant Pseudomonas aeruginosa (Gram −) isolates; conditions: 60 different multi-drug resistant isolates
[5] = FIG. 1, representative spectral curve

Molecule | Spectral Absorption Ranges and Peaks [1] | further results
CCOC(=O)C1=Cc2c3nc(cc4nc(cc5[n-]c(cc6[n-]c2c(C)c6CC)c(C)c5CC)C(C)=C4CC)[C@@H](C)[C@]13CC.[Cl-].[Cl-].[Sn] (racemic) [Tin etiopurpurin] | 660 nm | 
Cc1c(C(=O)O)c(O)cc2c1C(=O)c1c(O)c(C3O[C@H](CO)[C@@H](O)[C@H](O)[C@H]3O)c(O)c(O)c1C2=O (stereo in doubt) [Carmine] | 500-570 nm | 
NCC(=O)CCC(=O)O [ALA] | 635 nm | 
COc1cc(S(=O)(=O)[O-])c(C)cc1N=Nc1c(O)ccc2cc(S(=O)(=O)[O-])ccc12.[Na+].[Na+] [Allura Red AC] | 504 nm | 
CNc1ccc2nc3ccc(N)cc3[s+]c2c1.[Cl-] [Azure C] | 580-640 nm | 
CC1=C(/C=C/C(C)=C/C=C/C(C)=C/C=C/C=C(C)/C=C/C=C(C)/C=C/C2=C(C)CCCC2(C)C)C(C)(C)CCC1 [Beta carotene] | 470 nm | 
O=S(=O)([O-])c1cc(S(=O)(=O)[O-])c2c(N=Nc3ccc(S(=O)(=O)[O-])c4ccccc34)c(O)ccc2c1.[Na+].[Na+].[Na+] [Brilliant Scarlet 4R] | 503 nm | 
O=S(=O)([O-])c1ccc(N=Nc2cc(S(=O)(=O)[O-])c3ccccc3c2O)c2ccccc12.[Na+].[Na+] [Carmoisine azorubine] | 515 nm | 
C=Cc1c(C)c2cc3nc(c(CC(=O)O)c4[nH]c(cc5nc(cc1[nH]2)C(C)=C5CC)c(C)c4C(=O)O)[C@@H](CCC(=O)O)[C@@H]3C [Chlorin e6] |  | absorption peak [1]: 410 nm
O=S(=O)([O-])c1ccc(/N=N/c2cc(S(=O)(=O)[O-])c3ccccc3c2O)c2ccccc12.[Na+].[Na+] [Chromotrope FB] | 512 nm | 
Nc1c(/N=N/c2ccc(-c3ccc(/N=N/c4cc(S(=O)(=O)O)c5ccccc5c4N)cc3)cc2)cc(S(=O)(=O)O)c2ccccc12 [Congo Red] | 400-560 nm | 
CN(C)c1ccc(C(=C2C=CC(=[N+](C)C)C=C2)c2ccc(N(C)C)cc2)cc1 [Crystal Violet] | 550-610 nm | 
CC(=O)Nc1ccc2nc3c4ccccc4c(=N)cc-3oc2c1.Cl [Darrow Red] | 450-550 nm | 
O=C([O-])c1ccccc1-c1c2cc(Br)c(=O)c(Br)c-2oc2c(Br)c([O-])c(Br)cc12.[Na+].[Na+] [Eosin Y] | 490-530 nm | 
CCN(Cc1cccc(S(=O)(=O)[O-])c1)c1ccc(C(=C2C=CC(=[N+](CC)Cc3cccc(S(=O)(=O)[O-])c3)C=C2)c2ccccc2S(=O)(=O)[O-])cc1.[Na+].[Na+] [Erioglaucine disodium salt] | 629 nm | 
O.O=C([O-])c1ccccc1-c1c2cc(I)c(=O)c(I)c-2oc2c(I)c([O-])c(I)cc12.[Na+].[Na+] [Erythrosin B] | 510-540 nm | 
CCOC(=O)c1ccccc1-c1c2cc(Br)c(=O)c(Br)c-2oc2c(Br)c([O-])c(Br)cc12.[K+] [Ethyl Eosin] | 530-550 nm | 
CCN(Cc1cccc(S(=O)(=O)[O-])c1)c1ccc(C(=C2C=CC(=[N+](CC)Cc3cccc(S(=O)(=O)[O-])c3)C=C2)c2ccc(O)cc2S(=O)(=O)[O-])cc1.[Na+].[Na+] [Fast Green] | 560+ nm | 
O=C1/C(=C2\Nc3ccc(S(=O)(=O)[O-])cc3C2=O)Nc2ccc(S(=O)(=O)[O-])cc21.[Na+].[Na+] [Indigo Carmine] | 608 nm | 

Molecule | Spectral Absorption Ranges and Peaks [1] | further results
CCN(Cc1cccc(S(=O)(=O)O)c1)c1ccc(C(=C2C=CC(=[N+](CC)Cc3cccc(S(=O)(=O)O)c3)C=C2)c2ccc(S(=O)(=O)O)cc2)cc1.[Na+].[Na+] [Light Green SF] | 590+ nm | 
CN(C)c1ccc(C(=C2C=CC(=[N+](C)C)C=C2)c2c(O)c(S(=O)(=O)[O-])cc3cc(S(=O)(=O)[O-])ccc23)cc1.[Na+] [Lissamine green] | 633 nm | 
CC(C)=CCC/C(C)=C/C=C/C(C)=C/C=C/C(C)=C/C=C/C=C(C)/C=C/C=C(C)/C=C/C=C(\C)CCC=C(C)C [Lycopene] | 530 nm | 
CN(C)c1ccc(C(=C2C=CC(=[N+](C)C)C=C2)c2ccc([N+](C)(C)C)cc2)cc1.[Cl-].[Cl-] [Methyl Green] | 560+ nm | 
CN(C)c1ccc2nc3ccc(=[N+](C)C)cc-3sc2c1 [Methylene Blue] | 590+ nm | susceptibility to photosensitizer and light [2]: susceptibility
Cc1cc2nc3ccc(N(C)C)cc3nc2cc1N.Cl [Neutral Red] | 480-570 nm | 
O=S(=O)([O-])c1cc(S(=O)(=O)[O-])c2c(N=Nc3ccc(S(=O)(=O)[O-])c4ccccc34)c(O)ccc2c1.[Na+].[Na+].[Na+] [New Coccine] | 506 nm | 
Nc1c(O)c(S(=O)(=O)[O-])c(O)c2c1C(=O)c1ccccc1C2=O.[Na+] [Nuclear Fast Red] | 460-550 nm | 
O=S(=O)(O)c1cc(S(=O)(=O)O)c2c(/N=N/c3ccccc3)c(O)ccc2c1 [Orange G] | 450-510 nm | 
O=C([O-])c1c(Cl)c(Cl)c(Cl)c(Cl)c1-c1c2cc(Br)c(=O)c(Br)c-2oc2c(Br)c([O-])c(Br)cc12.[Na+].[Na+] [Phloxine B] | 520+ nm | 
Cc1cc2nc3c(=O)[nH]c(=O)nc-3n(C[C@H](O)[C@H](O)[C@H](O)COP(=O)([O-])O)c2cc1C.[Na+] [Riboflavin 5′-monophosphate sodium salt] | 441 nm | 
O=C([O-])c1c(Cl)c(Cl)c(Cl)c(Cl)c1-c1c2cc(I)c(=O)c(I)c-2oc2c(I)c([O-])c(I)cc12.[Na+].[Na+] [Rose bengal] | 548 nm | 
Cc1cc2nc3cc(C)c(N)cc3[n+](-c3ccccc3)c2cc1N.[Cl-] [Safranin O] | 470-550 nm | 
CCOC(=O)C1=Cc2c3nc(cc4nc(cc5[n-]c(cc6[n-]c2c(C)c6CC)c(C)c5CC)C(C)=C4CC)[C@@H](C)[C@]13CC.[Cl-].[Cl-].[Sn] [SnEt2 (Purlytin), SnEt2] | 660 nm | 
Cc1ccccc1/N=N/c1ccc(/N=N/c2c(O)ccc3ccccc23)c(C)c1 [Sudan IV] | 470-580 nm | 
C=Cc1c(C)c2cc3nc(c(CC(=O)N[C@@H](CC(=O)O)C(=O)O)c4[nH]c(cc5nc(cc1[nH]2)C(C)=C5CC)c(C)c4C(=O)O)[C@@H](CCC(=O)O)[C@@H]3C [Talaporfin (LS11, MACE, Npe6), Talaporfin] | 660 nm | 
O=C([O-])C1=NN(c2ccc(S(=O)(=O)[O-])cc2)C(=O)C1N=Nc1ccc(S(=O)(=O)[O-])cc1.[Na+].[Na+].[Na+] (stereo not drawn) [Tartrazine] | 400-460 nm | 
Cc1cc2nc3ccc(N(C)C)cc3[s+]c2cc1N.[Cl-] [Toluidine Blue] | 560+ nm | eradication of MRSA [3]: eradicate; reduction of isolates with PDT [4]: significantly reduced
Cc1cc(-c2ccc(/N=N/c3c(S(=O)(=O)O)cc4cc(S(=O)(=O)O)cc(N)c4c3O)c(C)c2)ccc1/N=N/c1c(S(=O)(=O)O)cc2cc(S(=O)(=O)O)cc(N)c2c1O [Trypan Blue] | 500+ nm | 

Molecule | Spectral Absorption Ranges and Peaks [1] | further results
Acid Fuchsin | 530-560 nm | 
Aniline Blue | 550-620 nm | 
Azure B | 580+ nm | 
BPD-ma | 689 nm | 
Basic Fuchsin | 520-570 nm | 
Brilliant Cresyl Blue | 550+ nm | 
HPPH | 665 nm | 
Luxol Fast Blue | 500-640 nm | 
Mono-N-Aspartyl Chlorin e6 | 664 nm | 
Mutated Firefly luciferase S284T: mutated firefly luciferase S284T |  | spectral curve runs to wavelength [5]: about 720 nm; spectral curve starts at wavelength [5]: about 520 nm; spectral peak of emitted light [5]: about 630 nm
Nickel 5,10-bis-acrylate etioporphyrin I | 580 nm | 
Phthalocyanine-4 | 670 nm | 
Si(IV)-naphthocyanine |  | absorption peak [1]: 773 nm
Silicon phthalocyanine [Silicon phthalocyanine (Pc4)] | 675 nm | 
Sudan Red | 450-590 nm | 
Taporfin Sodium | 664 nm | 
Verteporfin | 690 nm | 
Wild-type Firefly luciferase (FFluc): Wild-type Firefly luciferase from Photinus pyralis, uses D-luciferin, ATP dependent |  | spectral curve runs to wavelength [5]: about 680 nm; spectral curve starts at wavelength [5]: about 460 nm; spectral peak of emitted light [5]: about 557 nm
